This note sets out measurements from publication PMC11809512, “Looking for approved-medicines to be repositioned as anti-Trypanosoma cruzi agents. Identification of new chemotypes with good individual- or in combination-biological behaviours” (Memórias do Instituto Oswaldo Cruz, 2025).

As usually defined, the IC50 is the concentration that inhibits the measured activity by half. In general, inhibition refers to the share of the control response that was lost under treatment.

Read-outs that look alike come from different tables or passages of the source.

Assay [1] has as its system epimastigotes of T. cruzi (Tulahuen 2 strain, DTU Tc VI). Description: Screening / IC50 against T. cruzi epimastigotes (growth, absorbance 610 nm, 5 days). In kind it is cell-based, Trypanosoma cruzi. Conditions: for SIepi: SIepi = IC50,J774.1A/IC50,epi; for IC50: Trypanosoma cruzi, 120 h, read-out: IC50,epi; for anti-epimastigote activity in the initial screening (in words): 25 µM or 100 µg/mL, cut-off more than 65% inhibition. How it is done: (§1) Screening - Entities, dissolved in dimethylsulfoxide (DMSO, Sigma) before use and then diluted in a culture milieu, were firstly tested against epimastigotes of T. cruzi [Tulahuen 2 strain, discrete typing unit (DTU) Tc VI] as previously described.[14] ^, [15] […] The system was incubated at 28 °C for five days and to assess cell proliferation, cell density was monitored at 610 nm at time 0 (Ap0) and five days post incubation (Ap). All measures were normalised to the control population at day 0 (Ac0) and at day 5 (Ac5). Control parasites were incubated with 0.4% DMSO, corresponding to the highest DMSO concentration of the well. The percentage of parasite inhibition was calculated as: […]. This assay was independently performed three times. […] Secondly,[16] Vero (ATCC® CCL-81™) cells were infected with T. cruzi metacyclic trypomastigotes from 15 days old Dm28 clone (DTU Tc I) epimastigote cultures. Subsequently, the trypomastigotes harvested from this culture were used to infect further Vero cell cultures at a multiplicity of infection of 10. These trypomastigote-infected Vero cell cultures were incubated at 37 °C in humidified air and 5% CO2 for five to seven days. After this time, cellular trypomastigotes were collected from the supernatant by centrifugation at 3,000 × g for 10 min. The trypomastigote-containing pellets were resuspended in RPMI media supplemented with 5% foetal bovine serum (FBS) and penicillin/streptomycin at a final density of 1 × 10^8 parasites/mL. For viability assays, 1 × 10^7 trypomastigotes were seeded in black 96 well plates in RPMI and incubated with increasing concentrations of the entities under study for 24 h. Viability was analysed using resazurin, which is reduced to highly fluorescent resorufin. 50 μL of resazurin solution (2 mg/mL in RPMI) were added to each well and incubated for 4 h at 37 °C. Fluorescence (excitation 530 nm / emission 590 nm) was measured in a Thermo Scientific Varioskan® Flash Multimode plate spectrofluorimeter instrument. Untreated parasites were used as negative controls (100% of viability). […] Thirdly, for infection persistence analysis,[16] trypomatigotes Vero cells (at a multiplicity of infection of 10) growing in RPMI were trypsinised and replated in 24-wll plates (2-3 × 10^5 cells/well). […] After 24 h of incubation, cells were washed with phosphate-buffered saline (PBS), fixed with 4% paraformaldehyde, and stained with DAPI. Infected cells and amastigotes per cell were counted from randomly selected fields (400 cells per conditions). Two independent infections with trypomastigotes pre-treated with entities by two independent technicians were analysed. The percentage of uninfected Vero cells over total cells, as well as the percentage of decrease in the number of amastigotes per infected cell, was counted for each studied compound concentration tested and normalised against control untreated parasites.

A further assay has as its system J774.1A macrophages. As to the kind of experiment: Cytotoxicity on macrophages (MTT, 48 h). In kind it is cell-based. Conditions: Macrophage, read-out: IC50,J774.1A. How it is done:
Cytotoxicity - J774.1A macrophages (ATCC® TIB67™) were grown in DMEM milieu supplemented with 10% […] FBS, 1% L-glutamine, 1% streptomycin, and 100 units/mL penicillin. Cell viability was assessed using the MTT protocol. […] Cells were grown in 96-well plates (5 × 10^4 cells/well) for 24 h. Cultures were carried out at 37 °C in a humidified atmosphere with 5% CO2 and incubated with the compounds at different concentrations for 48 h. After incubation, the milieu was removed, and the cells were treated with 100 μL of 0.4 mg/mL MTT for 4 h at 37 °C. Subsequently, 100 μL of DMSO was added to the mixture. The solubilised formazan product was quantified through absorbance measurements at 570 nm. The absorbance values were transformed to the percentage of cytotoxicity compared to the negative controls.

A further assay deals with epimastigote T. cruzi. As to the kind of experiment: Anti-epimastigote activity in modified milieu (excess Ca2+, glutamate or N-acetyl-L-cysteine, 1 mM). In kind it is cell-based. Conditions: Trypanosoma cruzi; for inhibition at 25 µM: read-out: Percentage of growth inhibition at 25 µM. How it is done: Three controls of untreated parasites and containing excess of calcium (II), glutamate or N-acetyl-L-cysteine (1 mM) were included. All treated and untreated wells contain no more than 0.4% of DMSO. Controls were used to calculate the relative proliferation in the treatment wells. Assays were performed in triplicate for all cases.

Assay [2] concerns amastigote forms of T. cruzi in Vero cells (Dm28 clone, DTU Tc I). The class given is cell-based. Conditions: 24 h. The protocol:
as §1
The number of amastigotes per cell as well as the number of infected cells was then counted.

The subject of assay [3] is Trypanosoma cruzi trypomastigotes (Dm28c). As to the kind of experiment: Trypomastigote viability (resazurin, 24 h). Conditions: fixed concentrations, Fig. 1. In kind it is cell-based. The protocol: Screening - Entities, dissolved in dimethylsulfoxide (DMSO, Sigma) before use and then diluted in a culture milieu, were firstly tested against epimastigotes of T. cruzi [Tulahuen 2 strain, discrete typing unit (DTU) Tc VI] as previously described.[14] ^, [15] […] The system was incubated at 28 °C for five days and to assess cell proliferation, cell density was monitored at 610 nm at time 0 (Ap0) and five days post incubation (Ap). All measures were normalised to the control population at day 0 (Ac0) and at day 5 (Ac5). Control parasites were incubated with 0.4% DMSO, corresponding to the highest DMSO concentration of the well. The percentage of parasite inhibition was calculated as: (Ap - Ap0)/(Ac5 - Ac0) × 100. This assay was independently performed three times. […] Secondly,[16] Vero (ATCC® CCL-81™) cells were infected with T. cruzi metacyclic trypomastigotes from 15 days old Dm28 clone (DTU Tc I) epimastigote cultures. […] Viability was analysed using resazurin, which is reduced to highly fluorescent resorufin. […] Fluorescence (excitation 530 nm / emission 590 nm) was measured in a Thermo Scientific Varioskan® Flash Multimode plate spectrofluorimeter instrument. […] Infected cells and amastigotes per cell were counted from randomly selected fields (400 cells per conditions). Two independent infections with trypomastigotes pre-treated with entities by two independent technicians were analysed. […]

Setting [4] is: epimastigotes Tulahuen 2, 5 days.
[5] abbreviates: Ca2+ 1 mM, read-out: IC50,epi with excess of Ca2+.

On to `CCOC(=O)C1=C(COCCN)NC(C)=C(C(=O)OC)C1c1ccccc1Cl` (centres unmarked) [Amlod, Amlodipine], for which the SIepi in assay [1] is recorded as 7.00. In addition, the IC50 in assay [1] (setting [4]) was 13.7 µM; in the assay on J774.1A macrophages (macrophages, MTT), 95.7 µM; in the assay with epimastigote T. cruzi (setting [5]) it was roughly 25 µM.

`C[C@H]1c2cccc(O)c2C(=O)C2=C(O)[C@]3(O)C(=O)C(C(N)=O)=C(O)[C@@H](N(C)C)[C@@H]3[C@@H](O)[C@@H]21` [Dox, Doxycycline]: the SIepi in assay [1] came out at 1.24. Besides, the IC50 in assay [1] (setting [4]) came out at 19.1 µM; in the assay with J774.1A macrophages (macrophages, MTT), 23.8 µM.

Regarding `C#Cc1cccc(Nc2ncnc3cc(OCCOC)c(OCCOC)cc23)c1` [Erlo, Erlotinib], in assay [1], the “anti-epimastigote activity in the initial screening (in words)” value was “did not display anti-T. cruzi activities in the assayed conditions”.

In assay [1], `O=C1CN(/N=C/c2ccc([N+](=O)[O-])o2)C(=O)N1` [Nitrof, Nitrofurantoin] displayed an SIepi of 4.59. Further, the IC50 in assay [1] (setting [4]) came to 13.3 µM; in the assay on J774.1A macrophages (macrophages, MTT) it was 61.1 µM.

Consider `NCC1(CC(=O)O)CCCCC1` [Gaba, Gabapentin], for which the IC50 in assay [1] (TULAHUEN) is 6.01 µM; with J774.1A macrophages, 19.1 µM; with epimastigote T. cruzi (read-out: IC50,epi with excess of Ca2+) it was greater than 25 µM; with epimastigote T. cruzi (read-out: IC50,epi with excess of glutamate) it was greater than 25 µM.

In the case of `CCN(CC)CCNC(=O)c1c(C)[nH]c(/C=C2\C(=O)Nc3ccc(F)cc32)c1C` [Sun, Sunitinib], the “anti-epimastigote activity in the initial screening (in words)” value in assay [1] is “did not display anti-T. cruzi activities in the assayed conditions”.

With `CC1CS(=O)(=O)CCN1/N=C/c1ccc([N+](=O)[O-])o1` (centres unmarked) [Nfx, nifurtimox], the inhibition at 25 µM in the assay on epimastigote T. cruzi (with Ca2+ (1 mM)) was found to be 61%; in the assay on epimastigote T. cruzi (with Glu (1 mM)), 55%; in the assay with epimastigote T. cruzi (with NAC (1 mM)), 20%; with epimastigote T. cruzi (without Ca2+), 70%; in the assay on epimastigote T. cruzi (without Glu), 70%; in the assay on epimastigote T. cruzi (without NAC) it was 74%.

Turning to `CCOC(=O)N1CCC(=C2c3ccc(Cl)cc3CCc3cccnc32)CC1` [Lorat, Loratadine], the SIepi in assay [1] is 8.21. Moreover, the half-inhibitory concentration (IC50) was 0.95 µM in assay [1] (setting [4]) and 7.8 µM in the assay on J774.1A macrophages (macrophages, MTT).

The compound `NC(=O)NN=C1C=Cc2ccccc2C1=O` [Naft, Naftazone] registered an SIepi in assay [1] of 135.7. Besides, the IC50 stood at 0.75 µM in assay [1] (setting [4]); 102 µM in the assay with J774.1A macrophages (macrophages, MTT); 2.8 µM with epimastigote T. cruzi (setting [5]); 1.9 µM in the assay on epimastigote T. cruzi (NAC 1 mM, read-out: IC50,epi with excess of N-acetyl-L-cysteine (NAC)); 13.5 µM in the assay on epimastigote T. cruzi (glutamate 1 mM, read-out: IC50,epi with excess of glutamate). Besides, the figures for the “%dnac: percentage of decrease in the number of amastigotes per treated Vero cell respect to control” value in assay [2] (6.25 µM), in assay [2] (12.5 µM) and in assay [2] (25 µM) were 0%, 0% and 24%, respectively. In addition, the “%ucell: percentage of uninfected Vero cells with amastigotes respect to untreated parasites” value in assay [2] (6.25 µM) is listed as 0%; in assay [2] (12.5 µM) it was 0%; in assay [2] (25 µM), 15%. Further, in assay [3], the “anti-trypomastigote activity (in words)” value was “excellent cytotoxic agent for this form of the parasite”.

With `CS(=O)(=O)CCNCc1ccc(-c2ccc3ncnc(Nc4ccc(OCc5cccc(F)c5)c(Cl)c4)c3c2)o1` [Lapa, Lapatinib], the half-maximal inhibitory concentration (IC50) in assay [1] (setting [4]) was found to be 16.6 µM; in the assay on J774.1A macrophages (macrophages, MTT) it was 7.6 µM.

In assay [1], `CN(C/C=C/C#CC(C)(C)C)Cc1cccc2ccccc12` [Terb, Terbinafine] yielded an SIepi of 3.05. Also, the IC50 is 21.4 µM in assay [1] (setting [4]) and 65 µM with J774.1A macrophages (macrophages, MTT). In addition, the results for the “%dnac: percentage of decrease in the number of amastigotes per treated Vero cell respect to control” value in assay [2] (6.25 µM) and in assay [2] (12.5 µM) were 20% and 23%, respectively. Moreover, the “%ucell: percentage of uninfected Vero cells with amastigotes respect to untreated parasites” value in assay [2] (6.25 µM) amounted to 4%; in assay [2] (12.5 µM), 15%.

In assay [1], `CCC(C)(C)C(=O)O[C@H]1C[C@@H](C)C=C2C=C[C@H](C)[C@H](CC[C@@H]3C[C@@H](O)CC(=O)O3)[C@H]21` [Simv, Simvastatin] returned an SIepi of 0.88. Besides, the half-inhibitory concentration (IC50) in assay [1] (setting [4]) amounted to 7.36 µM; in the assay on J774.1A macrophages (macrophages, MTT), 6.5 µM.

As for `CC(=O)N1CCN(c2ccc(OCC3COC(Cn4ccnc4)(c4ccc(Cl)cc4Cl)O3)cc2)CC1` (centres unmarked) [Ket, Ketoconazole], in assay [1], the SIepi was determined as 2.60. In addition, the IC50 was 5.13 µM in assay [1] (setting [4]) and 13.3 µM in the assay with J774.1A macrophages (macrophages, MTT).

`O=C(Cn1ccnc1[N+](=O)[O-])NCc1ccccc1` [Bnz, Benznidazole]: the SIepi in assay [1] amounted to 50.2. The half-maximal inhibitory concentration (IC50) is 4.93 µM in assay [1] (setting [4]) and 247 µM in the assay on J774.1A macrophages (macrophages, MTT).
